Test [1] deals with patients who have neuropathic pain around the low back and the lower limbs. The experiment in a line: Pain-associated QOL by JOABPEQ (social life function) in patients with neuropathic pain. Format: in vivo, human. The method, then:
(§1) Compound A and corresponding placebo were injected to the patients who have neuropathic pain around the low back and the lower limbs twice daily for 14 days. For the first 3 days, 30 μg of Compound A was administered twice daily (60 μg/day), and then 60 μg of Compound A was administer twice daily (120 μg/day) for the next 11 days.
The patient's pain-associated quality of life (QOL) was assessed using Japan Orthopedic Association Back Pain Evaluation questionnaires (JOABPEQ). Patients self-evaluated their QOL before (Pre-Treatment), 8 days (Day 8) and 15 days (Day 15) after start treatment by Compound A or placebo.

In test [2] the test system is neuropathic pain model rats. Briefly: Pain threshold in neuropathic pain model rats (L4/L5 nerve root ligation, Dynamic Plantar Aesthesiometer). Format: in vivo, rat. As to conditions: for Pain threshold, During treatment 2 day: 2-day after start of administration; for Pain threshold, During treatment 4-day: 4-day after start of administration; for Pain threshold, During treatment 7-day: 7-day after start of administration; for Pain threshold, 10-day: 10-day after start of administration; for Pain threshold, Pre-treatment: baseline, before start of administration.

Test [3] relates to patients who have neuropathic pain around the low back and the lower limbs. Briefly: Pain intensity by Visual Analogue Scale (VAS), responder rate in patients with neuropathic pain. The format is in vivo, human. The method, then: as §1
The intensity of pain was assessed using Visual Analogue Scale (VAS). A VAS is usually a horizontal line, 100 mm in length, anchored by no pain and awful pain at each end. The patient marks on the line the point that they feel represents their perception of their current state. The VAS score is determined by measuring in millimeters from the left hand end of the line to the point that the patient marks. VAS score was measured before (Pre-treatment) and 15-days (Day 15) after start treatment by Compound A or placebo.

Where [4] appears, read: 30 μg/kg intravenous twice a day for 7 days.
Where [5] appears, read: 1 mg/kg oral twice a day for 7 days.

Marks after values point to notes of the source that are not given here.

With `CCCCC(F)(F)C(=O)CC[C@H]1CCC(=O)[C@@H]1CCCCCCC(=O)O` [Compound A, (−)-7-[(1R,2R)-2-(4,4-difluoro-3-oxooctyl)-5-oxocyclopentyl]heptanoic acid], the “Change in score of social life function from pre-treatment, Day 15” value in test [1] (injected twice daily for 14 days: 60 μg/day for 3 days, then 120 μg/day for 11 days, Day 15, JOABPEQ) is reported as 3.0 ± 2.8 (N = 20). Moreover, the “Social life function (JOABPEQ factor)” value in test [1] (injected twice daily for 14 days, vs placebo) is given as “significantly improved”. Also, in test [1] (injected twice daily: 60 μg/day for 3 days, then 120 μg/day, Day 8, JOABPEQ), the “Change in score of social life function from pre-treatment, Day 8” value is 2.7 ± 2.8 (N = 20) ^a. Also, in test [2] (setting [4]), the “Pain threshold, During treatment 2 day” value is listed as 6.8 ± 0.3 g; the “Pain threshold, During treatment 4-day” value is on record as 7.6 ± 0.3 g; the “Pain threshold, During treatment 7-day” value turned out to be 8.1 ± 0.3 g; the “Pain threshold, 10-day” value is 8.4 g. For the same compound, in test [2] (30 μg/kg intravenous twice a day, 4 days after surgery), the “Pain threshold, Pre-treatment” value amounted to 6.1 ± 0.2 g. Further, the “Pain threshold of the model paw compared with vehicle-control group” value in test [2] (intravenous, 30 μg/kg twice a day) is given as “statistically significantly increased”. Besides, the Rate of responder in test [3] (injected twice daily for 14 days: 60 μg/day for 3 days, then 120 μg/day for 11 days, VAS Day 15 vs pre-treatment) is listed as 94.4% (N = 18) *. Also, the “Responder rate compared with placebo treated group” value in test [3] (injected twice daily for 14 days, VAS Day 15) is “significantly higher”.

As to `CCCCC(F)(F)C(=O)CC[C@H]1CCC(=O)[C@@H]1CCCC/C=C/C(=O)O` [Compound B, (E)-7-[(1R,2R)-2-(4,4-difluoro-3-oxooctyl)-5-oxocyclopentyl]hept-2-enoic acid], in test [2] (setting [5]), the “Pain threshold, During treatment 2 day” value stood at 7.7 ± 0.3 g; the “Pain threshold, During treatment 4-day” value came to 8.2 g; the “Pain threshold, During treatment 7-day” value is recorded as 8.6 ± 0.2 g; the “Pain threshold, 10-day” value amounted to 8.2 ± 0.2 g. For the same compound, in test [2] (1 mg/kg oral twice a day), the “Pain threshold, Pre-treatment” value came out at 6.8 ± 0.2 g. Moreover, the “Pain threshold of the model paw compared with vehicle-control group” value in test [2] (oral, 1 mg/kg twice a day for 7 days) is “statistically significantly increased”.

Source of the values: US20150057351A1, “METHOD FOR TREATING NEUROPATHIC PAIN” (SUCAMPO AG, priority 2013, published 2015).
